From patent US20220152022A1
Where “and” joins values, the source holds several entries; their conditions need not be identical. Identical values can stand only once. Counter-ions that a name gives are not always drawn.

Tests used:
Type in all cases: in vivo, human
[1] = test system: Overweight and Obese Adults; experiment: Dose-ranging phase 1 clinical study (NCT02475317), multiple oral doses for 7 days; details: for treatment-emergent adverse events: all doses, 7 days; for Mean serum 7αC4: change from baseline to day 7, greatest change at maralixibat 50 mg BID; for Mean sBA levels: versus baseline, day 7
[2] = test system: Participants with Primary Sclerosing Cholangitis (PSC); experiment: CAMEO 14-week single-arm open-label phase 2a proof-of-concept study
Procedure: Participants were adults aged 18-80 years with a diagnosis of PSC. PSC diagnosis included a documented history of alkaline phosphatase (ALP) levels greater than 1.5 times above the upper limit of normal, biliary obstruction, and histological findings consistent with PSC diagnosis (if previously biopsied). The study enrolled 27 adults.
Efficacy was assessed by measuring at baseline and throughout the study sBA concentration, serum 7αC4 concentration (a marker of de novo bile acid synthesis), serum aoutotaxin concentration, LDL-C concentration, serum total cholesterol concentration, serum liver enzyme concentrations, and pruritus severity. Pruritus severity was determined by calculating Adult Itch Reported Outcome (ITCHRO) weekly sum scores and average daily scores (mean score over a 7-day period). Participants self-reported the ITCHRO daily on a scale 0-10 (0=no pruritus; 10=most severe pruritus).
Outcomes were assessed in the overall study population and in subgroups of participants (A) with any pruritus at baseline or (B) with an ITCHRO average daily score ≥4 out of 10 at baseline. Efficacy endpoints were based on change from baseline to week 14 or early termination (ET) and were analyzed using paired t-tests or Wilcoxon signed rank tests.

[3] = test system: Children with Progressive Familial Intrahepatic Cholestasis; experiment: INDIGO phase 2 open-label efficacy and safety study of maralixibat
Text: The HRQoL used was the […] QUALITY OF LIFE INVENTORY (PedsQL).

[4] = test system: Children with Alagille Syndrome; experiment: ICONIC phase 2b randomized placebo-controlled drug-withdrawal study with long-term extension
Procedure: Children aged 1-18 years with a diagnosis of ALGS and evidence of cholestasis were eligible to enroll in the ICONIC clinical study, see Tables 12-14. During a long-term extension, participants with sBA levels above the upper limit of normal and/or an ITCHRO(OBS) score >1.5 were eligible for the 400 μg/kg BID dose (all participants received the 400 μg/kg BID dose). Inclusion criteria for the ICONIC study included having cholestasis, which was defined as at least one of 1) sBA concentration (total sBA) >3× the upper limit of normal, 2) serum conjugated bilirubin concentration >1 mg/dL, 3) fat-soluble vitamin deficiency not otherwise explained, 4) serum gamma-glutamyl transferase concentration >3× the upper limit of normal, and 3) intractable pruritus explainable only by liver disease. Inclusion criteria also included having significant pruritus, which was defined as an average daily score of >2 on the ITCHRO(OBS) scale for 2 consecutive weeks (0=no pruritus; 4=most severe pruritus). Exclusion criteria included having surgically disrupted enterohepatic circulation, a liver transplant, decompensated cirrhosis, or having any liver disease other than ALGS.
sBA responders were defined as those patients achieving ≥50% reduction from baseline in sBA at week 12 or 18. ITCHRO responders were defined as those patients achieving at least a 1-point reduction from Baseline in weekly morning ITCHRO(OBS) score at week 12 or 18.
In the open label extension, the effect of higher doses was explored by increasing dosage to a maximum of 400 μg/kg BID in eligible participants.
Efficacy assessments were based on changes from baseline in sBA concentration, weekly average ITCHRO(OBS) scores (0, none; 4, most severe), CSS score (0, none; 4 most severe), and Clinician Xanthoma Scale score (0, none; 4, disabling). […] During the long-term extension, efficacy assessments were conducted every 12 weeks. Serum total cholesterol and serum 7αC4 concentration were also monitored during the ICONIC clinical study, among other measures.
sBA were measured using a fully validated liquid chromatography-electrospray ionization-mass electrospray (LC-ESI-MS) method using stable-isotope dilution analysis to measure serum concentrations of principal bile acids (cholic, chenodeoxycholic, ursodeoxycholic, deoxycholic acid, lithocholic, and their corresponding glycine and taurine conjugates). Serum samples were analyzed in the Division of Pathology and Laboratory Medicine, Cincinnati Children's Hospital Medical Center according to SOP #PATH.CMS.1033. Calibration standards of individual bile acids were in the range of 50-25,000 ng/mL and Quality Control samples were prepared at concentrations of 100, 500, 1000, 2500, and 20000 ng/mL. The intra- and inter-assay imprecision of the method for individual bile acids measured was within the accepted GLP quality assurance guidelines of <15% coefficient of variance for these QC samples. The lower limit of quantification of the assay was set at 100 ng/mL and the imprecision at this concentration was <20%. The limit of detection of the assay was 5 ng/mL. Total sBA is represented by the sum of the individual bile acid species measured.

For `CCCCC1(CCCC)CS(=O)(=O)c2ccc(N(C)C)cc2[C@@H](c2ccc(OCc3ccc(C[N+]45CCN(CC4)CC5)cc3)cc2)[C@H]1O.[Cl-]` [maralixibat], the treatment-emergent adverse events [1] was “All treatment-emergent adverse events were mild, and none were serious”, the “Mean serum 7αC4” value [1] was “increased” and the “Mean sBA levels” value [1] was “not elevated”. For the same compound, the tolerability ([2]; adults with PSC, up to 10 mg/day, 14 weeks) was “well tolerated”, the “Changes in serum total bilirubin, alanine aminotransferase, aspartate aminotransferase, and alkaline phosphatase concentrations” value ([2]; all participants) was “not statistically significant” and the “participants with worsening of pruritus by >1 point” value ([2]; baseline to week 14) was “No participants”. For the same compound, the “participants with ITCHRO average daily score improved by >1 point” value ([2]; count of all participants) was 8 out of 27, the “participants with ITCHRO average daily score improved by >3 points” value ([2]; count of all participants) was 6 of 27 and the “Mean conjugated bilirubin levels, increase” value ([2]; overall population) was 0.19 mg/dL. For the same compound, the conjugated bilirubin levels ([2]; participants with ITCHRO daily score ≥0 at baseline (so in the source)) was “no significant change”, the autotaxin levels ([2]; participants with ITCHRO daily score ≥4 at baseline) was “significant reductions” and the multi-parameter response ([3]; all PFIC 1 patients and all patients harboring a truncating ABCB11 mutation) was “not multi-parameter responders”. The “serum ALT, AST, and bilirubin concentrations over time” value ([3]; all low-dose responders, e.g. within 2-6 months of first administration) was “normalized or only mildly elevated”, the “height Z-score” value ([3]; high dose responder, following treatment response on sBA) was “increase in height Z-score” and the Response ([3]; individual PFIC 2 participants, one line each, max dose 280 or 560 μg/kg/day (Table 6), No reponse [sic] / Rapid complete response / Good response / No response until 560 reached) was “Rapid (4×) and No (19×) and Good”. The “cholestasis markers after dose increase” value ([3]; low-dose responder losing response in long-term extension, raised to 280 μg/kg BID at between 640 and 730 days) was “sBA concentration decreased, severity of pruritus decreased, serum 7αC4 concentration increased, and 7αC4:sBA ratio increased”, the “growth (height Z-score change relative to baseline)” value ([3]; low-dose responders (FIG. 4)) was “improved growth relative to baseline” and the “7αC4 concentrations at 48 weeks” value ([3]; low-dose responders (range, 3-43)) was 14 × baseline. The multi-parameter responders ([3]; mild PFIC 2 patients, 280 μg/kg QD) was 1 of 7, the “responders only after higher dose (high-dose responder)” value ([3]; moderate PFIC 2 patients, 280 μg/kg twice daily) was 1 of 12 and the “responders by week 48” value ([3]; moderate PFIC 2 patients, 280 μg/kg/day) was 5 of 12. For the same compound, the “growth (height Z-score change relative to baseline)” value ([3]; non-responders (FIG. 4)) was “did not”, the “7αC4 concentrations at 48 weeks” value ([3]; non-responders (range, 0.5-6)) was 1.8 × baseline and the “duration of maintained response” value ([3]; responders, long-term extension) was “for over a year and for up to or beyond 5 years”. For the same compound, the “weight Z-scores” value ([4]; 400 μg/kg QD then 400 μg/kg BID (FIGS. 35-36)) was “dose-dependent increase in weight Z-scores”, the “Change in ItchRO from Baseline to Week 48” value ([4]; ITCHRO(OBS) weekly morning average score, individual subjects (Table 18)) was −0.12 and 0.49 and −0.45 and 0.00 and −1.86 (2×) and −1.71 (2×) and −1.00 (2×) and −1.29 and −1.67 and −1.14 and −1.03 and −2.50 and −2.71 and −3.50 and −0.17 and −1.43 and −0.83 and the “study days reported as minimal or no pruritus (ITCHRO(OBS)<1)” value ([4]; across participants, after 98 weeks) was “over 89%”. The “Clinician xanthoma scale scores” value ([4]; all participants, by week 48 (p<0.01)) was “improved significantly”, the quality of life ([4]; core study and extension) was “improved quality of life” and the “PedsQL Multidimensional Fatigue Scale scores” value ([4]; core study and extension (p<0.01)) was “Improvements were seen”. For the same compound, the tolerability ([4]; core study and extension, doses up to 800 μg/kg/day, up to 4 years) was “generally well tolerated”, the “ItchRO(Obs) Weekly Morning Average Score, Change from Baseline to Week 48” value ([4]; individual subjects, one line each (Table 19)) was −1.86 (2×) and −1.71 (2×) and −1.00 (2×) and −1.29 and −1.67 and −1.14 and −1.03 and −1.43 and the “growth after dose increase” value ([4]; patients (N=15) given 400 μg/kg BID after 400 μg/kg QD for more than about 40 weeks) was “further increase in growth from baseline”. The “sBA responders at Week 48 (N = 28), %” value ([4]; sBA Response Definition Normalization (<8.5 μmol/L)) was “(3.6%)”, the “sBA responders at Week 48 (N = 28), %” value ([4]; sBA Response Definition ≥80% Reduction) was “(14.3%)” and the “sBA responders at Week 48 (N = 28), %” value ([4]; sBA Response Definition ≥90% Reduction) was “(3.6%)”.

For `CCCC[C@]1(CC)CS(=O)(=O)c2ccc(N(C)C)cc2[C@@H](c2cccc(NC(=O)N[C@@H]3O[C@H](COS(=O)(=O)O)[C@@H](O)[C@H](OCc4ccccc4)[C@H]3O)c2)[C@H]1O` (stereo in doubt) [volixibat, (2R,3R,4S,5R,6R)-4-benzyloxy-6-{3-[3-((3 S,4R,5R)-3-butyl-7-dimethylamino-3-ethyl-4-hydroxy-1,1-dioxo-2,3,4,5-tetrahydro-1H-benzo[b]thiepin-5-yl)-phenyl]-ureido}-3,5-dihydroxy-tetrahydro-pyran-2-ylmethyl) hydrogen sulfate], the treatment-emergent adverse events [1] was “All treatment-emergent adverse events were mild, and none were serious”, the “Mean serum 7αC4” value [1] was “increased” and the “Mean sBA levels” value [1] was “not elevated”.
